This note sets out measurements from patent US6518287B2, “Substituted imidazoles as dual histamine H1 and H3 agonists or antagonists” (Schering Corporation, priority 2000, dated 2003).

The target of one assay is T1, H3 receptors (Cavia porcellus, UniProt Q9JI35).
T1 construct: The source of the H3 receptors in this experiment was guinea pig brain; from tissue; host or cells: guinea pig brain membranes
Kind of assay: H3-Receptor Binding Assay (guinea pig brain membranes). The note with it: HCl salt of the indicated compound, 3 nM [3H]R-α-methyl histamine or [3H]Nα-methyl histamine, read-out: H3 Ave Ki. The procedure:
General Procedure for H3-Receptor Binding Assay
The source of the H3 receptors in this experiment was guinea pig brain. The animals weighed 400-600 g. The brain tissue was homogenized with a solution of 50 mM Tris, pH 7.5. The final concentration of tissue in the homogenization buffer was 10% w/v. The homogenates were centrifuged at 1,000×g for 10 min. in order to remove clumps of tissue and debris. The resulting supernatants were then centrifuged at 50,000×g for 20 min. in order to sediment the membranes, which were next washed three times in homogenization buffer (50,000×g for 20 min. each). The membranes were frozen and stored at −70° C. until needed.
All compounds to be tested were dissolved in DMSO and then diluted into the binding buffer (50 mM Tris, pH 7.5) such that the final concentration was 2 μg/ml with 0.1% DMSO. Membranes were then added (400 μg of protein) to the reaction tubes. The reaction was started by the addition of 3 nM [^3H]R-α-methyl histamine (8.8 Ci/mmol) or 3 nM [^3H]N^α-methyl histamine (80 Ci/mmol) and continued under incubation at 30° C. for 30 min. Bound ligand was separated from unbound ligand by filtration, and the amount of radioactive ligand bound to the membranes was quantitated by liquid scintillation spectrometry.

In another assay the target is T2, Histamine H1 receptor (Rattus norvegicus, UniProt P31390).
T2 construct: The tissue source was male Sprague-Dawley rat brain; tissue Rockland Corporation, Gilbertsville, Pa; host or cells: male Sprague-Dawley rat brain membranes
T2 sequence (P31390 whole entry): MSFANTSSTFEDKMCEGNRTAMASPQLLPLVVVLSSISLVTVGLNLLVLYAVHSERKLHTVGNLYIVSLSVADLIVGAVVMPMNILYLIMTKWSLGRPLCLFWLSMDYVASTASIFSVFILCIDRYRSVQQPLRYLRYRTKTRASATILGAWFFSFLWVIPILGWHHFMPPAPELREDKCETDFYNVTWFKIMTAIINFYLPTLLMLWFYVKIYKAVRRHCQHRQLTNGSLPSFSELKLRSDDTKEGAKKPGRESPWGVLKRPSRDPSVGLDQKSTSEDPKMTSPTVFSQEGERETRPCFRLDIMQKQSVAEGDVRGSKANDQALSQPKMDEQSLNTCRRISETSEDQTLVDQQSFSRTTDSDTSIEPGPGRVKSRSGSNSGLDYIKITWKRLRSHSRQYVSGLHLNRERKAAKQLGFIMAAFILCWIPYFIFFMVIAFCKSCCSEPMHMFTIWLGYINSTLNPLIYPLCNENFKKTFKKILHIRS
Kind of assay: H1-Receptor Binding Assay (rat brain membranes, [3H]pyrilamine). To be noted: HCl salt of the indicated compound, male Sprague-Dawley rat brain membranes, Cheng-Prusoff, read-out: H1 Ave Ki. From the text: General Procedure for H1-Receptor Binding Assay
The procedure used was based on that disclosed in V. T. Tran, R. S. L. Chang, and S. hr. Snyder, “Histamine H1 receptors identified in mammalian brain membranes with [H-3]mepyramine”, Proc. Natl. Acad. Sci. U.S.A 75 (1978) 6290-6294.
I. Tissue Preparation Protocol for Histamine H1 Receptor Binding Assay
1. The tissue source was male Sprague-Dawley rat brain. These were purchased stripped and frozen (available from Rockland Corporation, Gilbertsville, Pa.). The buffer used was ice-cold 50 mM Tris-HCl, pH 7.5. (The pH was determined at 25° C.)
2. The brains were spread out on plastic wrap on the benchtop and allowed to thaw for 10-15 min. After this, everything was kept ice-cold.
3. Two brains were put in each 50 mL round bottom centrifuge tube and 25 mL of buffer was added. Then they were broken up with a Polytron (from Brinkmann Instruments, Westbury, N.Y.) equipped with a PT-10 tip at setting 6 for 30 sec.
4. The volume in the tube was brought up to 45 mL and mixed and the particulate material was centrifuged at 1000×g (3000 rpm, SS-34 rotor) for 10 min to remove nuclei and unbroken cells.
5. Pellets were discarded and the supernatants were centrifuged 10 min at 50,000×g (20,000 rpm, SS-34 rotor).
6. The high-speed pellets were resuspended in a volume of Tris buffer equal to the original (4 mL), the contents of all tubes were pooled, and a sample was taken for BCA protein assay. The material was aliquotted, 45 mL per round-bottom tube, and the resuspension was recentrifuged. The yield of protein was approximately 20 mg/brain, so there was about 40 mg of protein per tube.
7. Pellets were frozen at −80° C.
II. H1 Histamine Receptor Binding Assay
1. FDCL and comparative compounds for assay were independently solubilized at 1 mg/ml DMSO by vortexing, or if necessary by sonication. The first dilution, 100-fold, was made in 50 mM Tris-HCl, pH 7.5, at room temperature. The three or four subsequent ten-fold serial dilutions were made in 1% DMSO/50 mM Tris-HCl, pH 7.5. Drug solutions and assay plates were kept at room temperature during the course of the assay set up.
2. Test compounds were assayed at four or five concentrations: 1, 0.1, 0.01, 0.001, and 0.0001 μg/ml. Twenty μl of drug solution was pipeted into each of three wells.
3. [^3H]Pyrilamine was diluted approximately 2000-fold with ice-cold […] Tris-HCl, pH 7.5 (to a working concentration of 20-25 nM), and put on ice.
4. A frozen tissue pellet was thawed in a 25° C. water bath, resuspended in 50 mM Tris-HCl, pH 7.5, at 1.7-2 mg/ml by brief break-up on the Polytron, and put on ice.
5. Twenty μl of diluted [^3H]pyrilamine was added to each well.
6. One hundred fifty μl of tissue suspension was added to each well.
7. The top of the plate was covered and it was placed in a 25° C. shaking water bath (about 60 oscillations/min) for 30 min.
8. Samples were filtered on a Tomtec Mach 2 harvester (available from Tomtec Corporation, Orange, Conn.) through a GF/B filter mat (from Wallac, Inc., Gaithersburg, Md.) presoaked in 0.3% polyethylenimine. Each sample was thrice washed with ice-cold 50 mM Tris-HCl, pH 7.5 dried 20 sec on the Tomtec, and dried 3-4 min in a microwave oven on a paper towel. The filter was impregnated with MELTILEX brand wax scintillant (from Wallac Corporation) and counted on a Betaplate scintillation counter (from Wallac Corporation).
9. Specific binding was determined as the difference between total and nonspecific binding. The percent inhibition in the presence of inhibitor or standard was determined using the formula:
[1-(sample binding-nonspecific binding)/specific binding]×100
For compounds that inhibit more than 50% at 1 μg/ml, an IC50 value was interpolated from proximate concentrations. […]

Each structure is given as a SMILES string.

T1 sequence (Q9JI35 whole entry): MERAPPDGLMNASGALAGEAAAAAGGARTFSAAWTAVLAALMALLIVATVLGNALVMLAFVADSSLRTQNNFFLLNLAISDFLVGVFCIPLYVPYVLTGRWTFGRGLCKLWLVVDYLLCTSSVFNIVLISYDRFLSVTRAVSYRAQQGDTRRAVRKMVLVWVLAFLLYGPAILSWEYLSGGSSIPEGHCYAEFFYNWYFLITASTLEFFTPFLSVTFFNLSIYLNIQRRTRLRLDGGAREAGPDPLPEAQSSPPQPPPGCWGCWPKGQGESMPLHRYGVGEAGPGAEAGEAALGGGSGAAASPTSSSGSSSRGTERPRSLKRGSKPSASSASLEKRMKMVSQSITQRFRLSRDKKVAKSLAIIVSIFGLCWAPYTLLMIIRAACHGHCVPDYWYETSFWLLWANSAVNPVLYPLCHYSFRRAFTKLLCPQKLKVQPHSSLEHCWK

Broadly, the Ki is the equilibrium dissociation constant of an inhibitor or competing ligand from its target. With `N=C(CCCc1c[nH]cn1)NCCC(c1ccc(Cl)cc1)c1ccccn1` (stereo not shown), the values for the Ki at H3 receptors and on Histamine H1 receptor were 29 nM and 201 nM, respectively.
For the molecule `N=C(CC(c1ccc(Cl)cc1)c1ccccn1)NCCc1c[nH]cn1` (stereo not shown), the Ki on H3 receptors was determined as 8 nM.
Still for that read-out and setting: with `O=C(CC(c1ccc(Cl)cc1)c1ccccn1)NCCc1c[nH]cn1` (stereo not shown) the figure was 16 nM.
Regarding `O=C(CC(c1ccc(Cl)cc1)c1ccccn1)NCCCCc1c[nH]cn1` (stereo not shown), the Ki on H3 receptors worked out at 0.8 nM.
As to `CN(CCc1c[nH]cn1)C(=O)CC(c1ccc(Cl)cc1)c1ccccn1` (stereo not shown), the inhibition constant (Ki) at H3 receptors worked out at 1 nM.
Regarding `Clc1ccc(C(CCNCCc2c[nH]cn2)c2ccccn2)cc1` (stereo not shown), the Ki worked out at 56 nM at H3 receptors and 600 nM at Histamine H1 receptor.
With `CN(CCCCc1c[nH]cn1)C(=O)CC(c1ccc(Cl)cc1)c1ccccn1` (stereo not shown), on H3 receptors, the Ki was 6.5 nM.
Still for that read-out and setting: with `O=C(CCc1c[nH]cn1)NCCC(c1ccc(Cl)cc1)c1ccccn1` (stereo not shown) the figure was 510 nM.
Regarding `CN(CCC(c1ccc(Cl)cc1)c1ccccn1)C(=O)CCc1c[nH]cn1` (stereo not shown), the inhibitory constant (Ki) at H3 receptors is 260 nM; at Histamine H1 receptor, 1000 nM.
`Clc1ccc(C(CCNCCCc2c[nH]cn2)c2ccccn2)cc1` (stereo not shown): the Ki at H3 receptors turned out to be 240 nM.
As for `Clc1ccc(C(CCNCCCCc2c[nH]cn2)c2ccccn2)cc1` (stereo not shown), the inhibitory constant (Ki) at H3 receptors worked out at 10 nM; at Histamine H1 receptor, 254 nM.
As for `CN(CCCc1c[nH]cn1)CCC(c1ccc(Cl)cc1)c1ccccn1` (stereo not shown), the Ki at H3 receptors was 120 nM; at Histamine H1 receptor, 10 nM.
The matching figures for `Clc1ccc(C(CCN(CCCCc2c[nH]cn2)CCCCc2c[nH]cn2)c2ccccn2)cc1` (stereo not shown): 23 nM and 83.5 nM.
As to `Clc1ccc(C(NCCCCc2c[nH]cn2)c2ccccc2)cc1` (stereo not shown), at H3 receptors, the Ki stood at 6 nM.
`CN(CCCCc1c[nH]cn1)CCC(c1ccc(Cl)cc1)c1ccccn1` (stereo not shown): the Ki on H3 receptors came to 15 nM; on Histamine H1 receptor, 7 nM.
With `C[N+](C)(CCCCc1c[nH]cn1)CCC(c1ccc(Cl)cc1)c1ccccn1` (stereo not shown), the Ki on H3 receptors was 160 nM; on Histamine H1 receptor, 120 nM.
As to `Clc1ccc(C(NCCCCc2c[nH]cn2)c2ccc(Cl)cc2)cc1`, on H3 receptors, the Ki was determined as 2 nM.
In the case of `O=C(CC(c1ccccc1)c1ccccc1)NCCCCc1c[nH]cn1`, on H3 receptors, the Ki stood at 36 nM.
`O=C(NCCCCc1c[nH]cn1)C(c1ccc(Cl)cc1)c1ccc(Cl)cc1`: the inhibition constant (Ki) on H3 receptors was determined as 33.5 nM.
`O=C(/C=C(\c1ccc(Cl)cc1)c1ccccn1)NCCc1c[nH]cn1`: on H3 receptors, the Ki is 37 nM.
For `O=C(NCCC(c1ccc(Cl)cc1)c1ccccn1)OCCc1c[nH]cn1` (stereo not shown), the Ki on H3 receptors turned out to be 260 nM.
On the same count and under the same terms, next, `O=C(CC(c1ccc(Cl)cc1)c1cccc[n+]1[O-])NCCCCc1c[nH]cn1` (stereo not shown): 8.5 nM; `O=C(CC(c1ccc(Br)cc1)c1ccccn1)NCCCCc1c[nH]cn1` (stereo not shown): 50 nM.
